Assays:
[1] = Serum stability, human serum; assay type: in vitro ADME; settings: 25% human serum; for half-life at 70 µM: human, LC-MS, normalized to EIC at t = 0
[2] = parameters: method as in PMID 33997269; settings: cited from earlier work
[3] = Ex vivo serum stability assay, mouse serum; assay type: in vitro ADME; settings: 25% mouse serum, over 12 h
Method: Mouse serum was obtained from 8–10-week-old athymic female mice. Mice were euthanized by CO2 asphyxiation with secondary decapitation to ensure death. An incision was made from the neck to the abdomen and the thorax was cut to expose the heart. An amount of 100 µL of heparin was then injected directly into the right atrium to prevent the blood from clotting. A cardiac puncture was performed by piercing the left ventricle with a 21G needle to remove 400–1000 µL of blood. Blood from five mice was collected and combined in a 10-mL centrifuge tube and centrifuged for 5 min at 500 rcf at 4 °C. The top layer containing the serum (opaque) was removed and stored at −20 °C.
To test for serum stability, a 10 mM stock of BTP-7-CPT and Scr-7-CPT was prepared in DMSO. Each compound (1.4 µL) was transferred into a microcentrifuge tube containing 200 µL of PBS with 25% mouse serum, or in PBS alone, and incubated at 37 °C (final concentration 70 μm). […] Samples containing the peptide were eluted with 10 µL of 70% acetonitrile in water containing 0.1% TFA into an LC-MS vial containing 20 µL of water with 0.1% TFA additive and analyzed via LC-MS. The amount of intact compound was determined through quantifying the ion count in the extracted ion chromatogram (EIC) using the MassHunter software. […]

[4] = biological target: T1, recombinant dg-Bcan protein (Homo sapiens, UniProt Q96GW7); assay: Octet binding kinetic analysis (steady state) to recombinant dg-Bcan; settings: one site specific binding fit, Octet RED
T1 construct: purchased R&D Systems 4009-BC-050
T1 sequence (Q96GW7 23-911): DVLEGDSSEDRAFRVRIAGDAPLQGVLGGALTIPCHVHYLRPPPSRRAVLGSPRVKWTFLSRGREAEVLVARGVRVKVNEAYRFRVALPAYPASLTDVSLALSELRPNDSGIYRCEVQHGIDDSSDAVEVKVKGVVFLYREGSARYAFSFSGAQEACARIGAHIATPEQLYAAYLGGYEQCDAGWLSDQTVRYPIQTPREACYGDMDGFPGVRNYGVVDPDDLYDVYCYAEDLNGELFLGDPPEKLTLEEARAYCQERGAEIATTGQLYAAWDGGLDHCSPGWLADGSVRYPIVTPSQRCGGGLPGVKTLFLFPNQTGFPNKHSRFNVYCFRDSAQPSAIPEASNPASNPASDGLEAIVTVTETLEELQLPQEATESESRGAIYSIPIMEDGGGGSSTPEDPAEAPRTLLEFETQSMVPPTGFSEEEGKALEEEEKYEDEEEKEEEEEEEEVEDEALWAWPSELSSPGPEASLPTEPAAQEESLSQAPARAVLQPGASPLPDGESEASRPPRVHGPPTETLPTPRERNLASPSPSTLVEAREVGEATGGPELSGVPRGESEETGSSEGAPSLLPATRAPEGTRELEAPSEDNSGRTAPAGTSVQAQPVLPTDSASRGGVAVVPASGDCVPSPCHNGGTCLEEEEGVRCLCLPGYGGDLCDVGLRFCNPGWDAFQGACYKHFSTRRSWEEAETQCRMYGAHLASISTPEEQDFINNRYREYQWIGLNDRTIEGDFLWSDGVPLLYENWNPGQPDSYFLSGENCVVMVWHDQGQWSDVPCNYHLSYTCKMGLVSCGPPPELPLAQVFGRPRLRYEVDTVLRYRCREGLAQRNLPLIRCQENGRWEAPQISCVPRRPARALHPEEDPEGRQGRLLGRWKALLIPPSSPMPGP
Method: Figure 3 Cytotoxicity of BTP-7-CPT. (a) Western blot showing expression of dg-Bcan in patient-derived GBM-X6 cells, as well as in Bcan-overexpressing HEK cells (HEK-Bcan). (b) Binding kinetics analysis (steady-state) of BTP-7-CPT (red) and unmodified CPT (blue) to recombinant dg-Bcan protein using the ForteBio Octet system. Rmax (maximal response in response unit) and KD (dissociation constant) were calculated using a non-linear regression (one site specific binding) fit using the Graphpad Prism software. (c) Luminescent cell viability (CellTiter-Glo) of GBM-X6 cells treated with BTP-7-CPT (nwells = 3) for 72 h. (d) Luminescent cell viability (CellTiter-Glo) of GS401 recurrent GBM cells treated with BTP-7-CPT (nwells = 3) for 72 h. All IC50 values were measured through the non-linear ‘log(inhibitor) vs. response—variable slope (four parameters)’ fit. […] Statistical significance was calculated using a two-way ANOVA, Sidak’s multiple comparisons test (* p < 0.05, *** p < 0.001, **** p < 0.0001). […]
Infrared spectroscopy (IR). Infrared spectra (IR) were recorded on a Bruker Alpha II FTIR. […]
Then, biosensors were exposed to the analyte (peptide) in working buffer (ranging between 0– 10 µM BTP) for 300 s during the ‘association’ step. […] Binding affinity of each peptide was assessed through steady state analysis, where the response unit was plotted over peptide concentration. […]

[5] = Compound solubility in saline vs pure DMSO (LC-MS of supernatant); assay type: physicochemical; settings: room temperature 5 min, centrifuged, LC-MS EIC
Method: Dried powder of each compound was first resuspended in pure DMSO to form a 10 mm stock. Each stock was then diluted in saline (0.9% NaCl) to form an aqueous solution of 100 µm (final DMSO 1% (v/v)) or 1.3 mM (final DMSO 10% (v/v)) of each compound. The samples were incubated at room temperature for 5 min, then centrifuged at 10,000 rcf for 10 min to pellet any precipitates. 5 µL of supernatant was diluted into LC-MS vials containing 100 µL of 50:50 water:acetonitrile with 0.1% TFA additive and analyzed by LC-MS. The presence of soluble compound in each supernatant was determined by quantifying the ion count in the extracted ion chromatogram (EIC) using the MassHunter software. Solubility was measured by comparing the total EIC of the sample diluted in saline vs. in pure DMSO. Each sample was measured in duplicates.
To test the solubility of each compound in aqueous solution, a 10 mm stock of each compound in pure DMSO was diluted in saline solution (0.9% sodium chloride in water) to a final concentration of either 100 µm or 1.3 mm. The samples were incubated at room temperature for 5 min and centrifuged to remove any precipitate. The supernatant was analyzed by liquid chromatography–mass spectrometry (LC-MS). To quantify solubility, the extracted ion count from samples diluted in saline was normalized to samples diluted in pure DMSO.

half-life at 70 µM [1] [h] | remaining at 24 h ([1]; after 24 h of incubation, read-out: peptide still intact) [%] | SMILES | stability in mouse serum [2] | stability in mouse serum (detectable compound vs PBS) [3] | KD (dissociation constant) [4] | soluble compound present in saline relative to in pure DMSO ([5]; 1.3 mm in saline (0.9% NaCl), 10% DMSO) | soluble compound present in saline relative to in pure DMSO ([5]; 100 µm in saline (0.9% NaCl), 1% DMSO) [%]
0.16 |  | CC(C)[C@@H](NC(=O)[C@@H](Cc1c[nH]cn1)NC(=O)CNC(=O)[C@@H](Cc1c[nH]c2ccccc12)NC(=O)[C@@H](CCCCN)NC(=O)[C@H](N)[C@H](C)O)C(=O)N[C@H](CC(N)=O)C(=O)N[C@H](CCCCN)C(=O)NCCCCCC(=O)N[C@@H](CS)C(N)=O [BTP-7-X-Cys] |  |  |  |  | 
4.4 | ~40 | CC(C)[C@@H](NC(=O)[C@@H](Cc1c[nH]cn1)NC(=O)CNC(=O)[C@@H](Cc1c[nH]c2ccccc12)NC(=O)[C@@H](CCCCN)NC(=O)[C@H](N)[C@H](C)O)C(=O)N[C@H](CC(N)=O)C(=O)N[C@H](CCCCN)C(=O)NCCCCCC(N)=O [BTP-7-X] | stable in mouse serum |  |  |  | 
 |  | CC[C@@]1(O)C(=O)OCc2c1cc1n(c2=O)Cc2cc3ccccc3nc2-1 [CPT, camptothecin] |  | no decline in detectable compound over 12 h | did not exhibit any affinity | practically undetectable | 30

From PMC9103942, “A Tumor-Homing Peptide Platform Enhances Drug Solubility, Improves Blood–Brain Barrier Permeability and Targets Glioblastoma” (Cancers, 2022)
